Measured values published in patent US20230226092A1, “CANCER […] ON G[…]” (NuCana plc, priority 2015, published 2023).
“Also recorded” adds a separate entry of the source.

What was measured:
[1] = ProGem1 dose escalation clinical study: safety and tolerability; format: in vivo, human
Protocol: Although the primary objectives of the dose escalation part of the study were to determine the Recommended Phase II Dose (RP2D) and safety profile, secondary objectives included determining the PK profile, however effective treatment of patients with a range of refractory cancers has also been observed as part of this study.
NUC-1031 was administered as a 5 to 30 minute intravenous slow bolus injection. • Schedule A: NUC-1031 was administered on days 1, 8, 15 of a 4 weekly Cycle. • Schedule B: NUC-1031 was administered on days 1, 5, 8, 12, 15, 19, of a 4 weekly Cycle.

[2] = tested on: Lin^-/CD34^+/CD38^-/CD123^+ CSCs of KG1a cells; experiment: Immunophenotypic identification of the leukaemic stem cell compartment in KG1a; format: cell-based, human; conditions: 72 h, sub-micromolar concentrations
Protocol: (§1) KG1a cells were cultured for 72 hours in the presence of a wide range of concentrations of each nucleoside analogue and their respective ProTides. Cells were then harvested and labelled with a cocktail of anti-lineage antibodies (PE-cy7), anti-CD34 (FITC), anti-CD38 (PE) and anti-CD123 (PERCP cy5). The sub-population expressing a leukaemic stem cell (LSC) phenotype were subsequently identified and were expressed as a percentage of all viable cells left in the culture. The percentages of stem cells remaining were then plotted on a dose-response graph and the effects of the ProTides were compared with the parental nucleoside.
as §1, with “compound assayed.” for “nucleoside analogue and their respective ProTides.”, “CSC” for “leukaemic stem cell (LSC)”, “CSCs” for “stem cells”, “NUC-1031 (and its purified isomers)” for “ProTides”, “gemcitabline.” for “the parental nucleoside.”

gemcitabine-[phenyl-benzoxy-L-alaninyl)]-phosphate [NUC-1031]
Adverse events (grade) / tolerability ([1]; Patient 004, breast cancer, 500 mg/m^2 weekly): tolerated treatment well
Adverse events (grade) / tolerability ([1]; Patient 005, ovarian cancer, 500 mg/m^2 weekly): tolerated treatment well
Adverse events (grade) / tolerability ([1]; Patient 007, colorectal cancer, possible linked to splenomegaly at baseline): thrombocytopaenia (G3)
Adverse events (grade) / tolerability ([1]; Patient 008, cancer of unknown primary, 375 mg/m^2 twice weekly, pleural effusion unlikely related to study drug): transient (G3) transaminitis (ALT and AST); also recorded: pleural effusion (G3)
Adverse events (grade) / tolerability ([1]; Patient 010, endometrial cancer, neutropenia in Cycle 1 at 750 mg/m^2): neutropenia (G3); also recorded: transient Grade 3 anaemia
Adverse events (grade) / tolerability ([1]; Patient 011, uterine carcinosarcoma, 375 mg/m^2 twice weekly): transient neutropaenia (G3); also recorded: low haemoglobin (G2)
Adverse events (grade) / tolerability ([1]; Patient 012, cholangiocarcinoma): tolerated treatment well
Adverse events (grade) / tolerability ([1]; Patient 015, cancer of unknown primary, Cycle 1 Day 8): thrombocytopenia (G3); also recorded: lymphopenia (G3); also recorded: neutropenia (G2)
Adverse events (grade) / tolerability ([1]; Patient 017, lung cancer): tolerated NUC-1031 well
Adverse events (grade) / tolerability ([1]; Patient 021, fallopian tube cancer, 625 mg/m^2 weekly): tolerated NUC-1031 well
Adverse events (grade) / tolerability ([1]; Patient 027, ovarian cancer, ALT after Cycle 1 Day 1 at 725 mg/m^2, a DLT): elevated ALT (G3); also recorded: mild neutropenia
ALT ([1]; Patient 027, ovarian cancer, day 7, from 96 at baseline): 256
Adverse events (grade) / tolerability ([1]; Patient 030, ovarian cancer, 725 mg/m^2 weekly): tolerated study drug well
Adverse events (grade) / tolerability ([1]; Patient 036, renal carcinoma, 825 mg/m^2 weekly, thrombocytopenia following Cycle 5 Day 1): thrombocytopenia (G3); also recorded: tolerating NUC-1031 much better than their previous regimen
Adverse events (grade) / tolerability ([1]; Patient 037, pancreatic cancer, 1,000, then 900 mg/m^2 weekly): loss of appetite, severe fatigue
Adverse events (grade) / tolerability ([1]; Patient 038, ovarian cancer, 900 mg/m^2 weekly, main toxicity, days 3 to 4): delayed onset fatigue
Adverse events (grade) / tolerability ([1]; Patient 040, cholangiocarcinoma, source was a stent blocked with tumour and a biliary tract cyst): infection (G3)
Adverse events (grade) / tolerability ([1]; Patient 041, breast cancer, 900 mg/m^2 weekly, fatigue during Cycle 3, neutropenia after Cycle 1 Day 8 and Day 15): fatigue (G3); also recorded: neutropenia
Adverse events (grade) / tolerability ([1]; Patient 042, cholangiocarcinoma, 900 mg/m^2 weekly, days 3-5): delayed onset fatigue (G2)
Adverse events (grade) / tolerability ([1]; Patient 043, ovarian cancer, 900 mg/m^2 weekly, fatigue on days 4 and 5): delayed onset fatigue (G2); also recorded: Leg oedema developed to G3
Adverse events (grade) / tolerability ([1]; Patient 044, lung cancer, 900, then 825 mg/m^2 weekly): G3 lung infection; also recorded: thrombocytopenia
Adverse events (grade) / tolerability ([1]; Patient 046, adrenal carcinoma, all G3 events in Cycle 1 at 1,000 mg/m^2, fatigue (G3) and neutropenia (G2) following Cycle 8 D1): delayed onset fatigue, nausea and vomiting (all G3); also recorded: neutropenia (G2)
Adverse events (grade) / tolerability ([1]; Patient 048, ovarian cancer, ALT, AST, neutropaenia (G2), ALP following Cycle 1 Day 1 at 1,000 mg/m^2, neutropenia (G3) in Cycle 4): ALT, (G3, a DLT); also recorded: AST and neutropaenia (G2); also recorded: ALP (G1); also recorded: neutropenia (G3); also recorded: diarrhoea following each dose
Adverse events (grade) / tolerability ([1]; Patient 050 (202), oesophageal cancer, following Cycle 1 Day 1 at 900 mg/m^2): ALT and fatigue, both G3
Adverse events (grade) / tolerability ([1]; Patient 051 (203), anal cancer, 900 mg/m^2 weekly): tolerated treatment well
Adverse events (grade) / tolerability ([1]; Patient 055 (207), ovarian cancer, 825 mg/m^2 weekly): nausea and vomiting post chemotherapy
Adverse events (grade) / tolerability ([1]; Patient 057 (209), ovarian cancer, Cycle 1 Day 15, 900 mg/m^2 weekly): anaemia and ascites both G3
Adverse events (grade) / tolerability ([1]; Patient 058 (210), lung cancer, Cycle 1 at 825 mg/m^2, may be partly due to a congenital liver condition): G3 transaminitis (ALT), a DLT
Adverse events (grade) / tolerability ([1]; Patient 059 (211), cervical cancer, thrombocytopenia in Cycle 1 at 825 mg/m^2, fatigue during Cycle 3): thrombocytopenia (G3); also recorded: fatigue (G3)
Adverse events (grade) / tolerability ([1]; Patient 060 (212), pancreatic cancer, 825 mg/m^2 weekly, required new stent): ALP, AST, ALT, all G3
Adverse events (grade) / tolerability ([1]; Patient 061 (213), colorectal cancer, 825 mg/m^2 weekly): no nausea or vomiting during treatment
Adverse events (grade) / tolerability ([1]; Patient 063 (215), ovarian cancer, fatigue on Cycle 3): fatigue (G3); also recorded: anaemia and neutropenia
Adverse events (grade) / tolerability ([1]; Patient 067 (219), osteosarcoma, 825 mg/m^2 weekly, neutropenia towards the end of each Cycle): neutropenia G2; also recorded: Tolerated study drug well
Adverse events (grade) / tolerability ([1]; Patient 069 (221), colorectal cancer, G4/G3 during Cycle 3 at 825 mg/m^2, G3 following Cycle 4 D1 at 750, G2 at C5 D8): neutropenia (G4); also recorded: neutropenia and leukopenia, G3; also recorded: neutropenia and leukopenia, G2
targeting of CSCs compared with Gemcitabine [2]: preferential targeting of CSCs
